The values below come from patent publication US20260297068A1, “SOLID FORM OF N-SUBSTITUTED PHENYLSULFONAMIDE COMPOUND” (SHANGHAI LEADO PHARMATECH CO. LTD., priority 2022, published 2026).

Where a name gives a salt, the structure may show the parent alone.

Data set [1] is described as follows: Hygroscopicity by dynamic moisture adsorption (DVS). The data set is classed as physicochemical. Particulars: 25° C./80% RH, 0% RH-95% RH adsorption curve. How it is done:
Dynamic moisture adsorption (DVS) analysis: the instrument is a DVS Intrinsic produced by SMS company (Surface Measurement Systems); temperature, 25° C.; carrier gas, flow rate: nitrogen, 200 mL/min; mass change per unit time: 0.002%/min; relative humidity range: 0% RH-95% RH.
Dynamic moisture absorption (DVS) was used to test their hygroscopicity.

Data set [2] is described as follows: Solid-state stability (HPLC purity and crystal form by XRPD after storage). The data set is classed as physicochemical. Particulars: for Purity / Initial purity / HPLC purity after storage at 336 h / HPLC purity after storage at 672 h / HPLC purity after storage at 168 h: HPLC; for Initial purity: starting sample before storage; for HPLC purity after storage at 336 h / HPLC purity after storage at 672 h / HPLC purity after storage at 168 h: solid state, open. The protocol: About 10 mg of each solid form of the compound was weighed and added to the HPLC vial, respectively, the bottleneck was sealed with a sealing film, and 10 small holes were made on the film. The vial was placed in 25° C./60% RH and 40° C./75% RH environment for 4 weeks, samples were taken in the 1st week, the 2nd week and the 4th week respectively, the purity (by HPLC analysis) and crystal form (by X ray powder diffraction analysis) of the sample were investigated.

[3] abbreviates: 25 °C/60% RH/open, 1 week, 10080 min.
Where [4] appears, read: 25 °C/60% RH/open, 2 weeks, 20160 min.
Setting [5] is: 25 °C/60% RH/open, 4 weeks, 40320 min.
The mark [6] stands for this setting: 40 °C/75% RH/open, 1 week, 10080 min.
Where [7] appears, read: 40 °C/75% RH/open, 2 weeks, 20160 min.
Where [8] appears, read: 40 °C/75% RH/open, 4 weeks, 40320 min.
The mark [9] stands for this setting: 25° C./60% RH and 40° C./75% RH, 4 weeks, result in words.

Turning to `CNCc1ccc(NS(=O)(=O)c2ccsc2)c(-c2ccco2)c1` [sulfate crystal form D, N-(2-(furan-2-yl)-4-((methylamino)methyl)phenyl)thiophene-3-sulfonamide], in data set [1], the “moisture adsorption value (moisture uptake)” value (“moisture adsorption value” for short) came out at 1.3%. In addition, the Purity in data set [2] (setting [3]) was found to be 98.74 area %; in data set [2] (setting [4]) it was 98.65 area %; in data set [2] (setting [5]), 98.78 area %; in data set [2] (setting [6]) it was 98.76 area %; in data set [2] (setting [7]), 98.65 area %; in data set [2] (setting [8]), 98.78 area %. Moreover, the Initial purity in data set [2] is on record as 98.77 area %.

As for `CNCc1ccc(NS(=O)(=O)c2ccsc2)c(-c2ccco2)c1` [Malonate crystal form K, N-(2-(furan-2-yl)-4-((methylamino)methyl)phenyl)thiophene-3-sulfonamide], the Purity was 98.64 area % in data set [2] (setting [3]); 98.61 area % in data set [2] (setting [4]); 98.59 area % in data set [2] (setting [5]); 98.64 area % in data set [2] (setting [6]); 98.58 area % in data set [2] (setting [7]); 98.46 area % in data set [2] (setting [8]). The Initial purity in data set [2] is reported as 98.64 area %.

For `CNCc1ccc(NS(=O)(=O)c2ccsc2)c(-c2ccco2)c1` [free crystal form A, N-(2-(furan-2-yl)-4-((methylamino)methyl)phenyl)thiophene-3-sulfonamide], in data set [1], the “moisture adsorption value” value came to 1.6%. In data set [2] (setting [9]), the “HPLC purity change on storage” value is on record as “did not decrease significantly”. In addition, the “crystalline phase change on storage (XRPD)” value in data set [2] (setting [9]) is “no detectable crystalline phase changes”. In addition, the Purity in data set [2] (setting [3]) stood at 98.18 area %; in data set [2] (setting [4]), 98.14 area %; in data set [2] (setting [5]) it was 98.1 area %; in data set [2] (setting [6]) it was 98.19 area %. Also, the Initial purity in data set [2] worked out at 98.11 area %. This compound also had an HPLC purity after storage at 336 h in data set [2] (40 °C/75% RH/open, 2 weeks) of 98.2%. The same compound registered an HPLC purity after storage at 672 h in data set [2] (40 °C/75% RH/open, 4 weeks) of 98.1%.

Consider `CNCc1ccc(NS(=O)(=O)c2ccsc2)c(-c2ccco2)c1` [Phosphate crystal form G, N-(2-(furan-2-yl)-4-((methylamino)methyl)phenyl)thiophene-3-sulfonamide], for which the Purity in data set [2] (setting [3]) is recorded as 98.11 area %; in data set [2] (setting [4]) it was 98.09 area %; in data set [2] (setting [5]), 98.04 area %; in data set [2] (setting [6]), 98.11 area %; in data set [2] (setting [7]) it was 98.06 area %; in data set [2] (setting [8]) it was 98.01 area %. The same compound gave an Initial purity in data set [2] of 98.11 area %.

As to `CNCc1ccc(NS(=O)(=O)c2ccsc2)c(-c2ccco2)c1` [hydrochloride crystal form C, N-(2-(furan-2-yl)-4-((methylamino)methyl)phenyl)thiophene-3-sulfonamide], in data set [1], the “moisture adsorption value” value is on record as 5.5%. Also, the Purity in data set [2] (setting [3]) turned out to be 98.97 area %; in data set [2] (setting [4]), 98.92 area %; in data set [2] (setting [5]), 98.87 area %; in data set [2] (setting [6]), 99.02 area %; in data set [2] (setting [7]), 98.9 area %; in data set [2] (setting [8]) it was 99 area %. Moreover, in data set [2], the Initial purity was 99.02 area %.

As to `CNCc1ccc(NS(=O)(=O)c2ccsc2)c(-c2ccco2)c1` [Tartrate crystal form H, N-(2-(furan-2-yl)-4-((methylamino)methyl)phenyl)thiophene-3-sulfonamide], the Purity in data set [2] (setting [3]) amounted to 98.71 area %; in data set [2] (setting [4]) it was 98.62 area %; in data set [2] (setting [5]) it was 98.6 area %; in data set [2] (setting [6]), 98.7 area %; in data set [2] (setting [7]), 98.6 area %; in data set [2] (setting [8]), 98.53 area %. For the same compound, the Initial purity in data set [2] is 98.71 area %.

As for `CNCc1ccc(NS(=O)(=O)c2ccsc2)c(-c2ccco2)c1` [fumarate crystal form B, N-(2-(furan-2-yl)-4-((methylamino)methyl)phenyl)thiophene-3-sulfonamide], the “moisture adsorption value” value in data set [1] was 0.2%. The Purity is 98.5 area % in data set [2] (setting [7]) and 98.52 area % in data set [2] (setting [8]). The Initial purity in data set [2] is given as 98.55 area %. Also, the HPLC purity after storage at 168 h in data set [2] (25 °C/60% RH/open, 1 week) worked out at 98.5%; in data set [2] (40 °C/75% RH/open, 1 week) it was 98.4%. The HPLC purity after storage at 336 h in data set [2] (25 °C/60% RH/open, 2 weeks) was determined as 98.5%. In data set [2] (25 °C/60% RH/open, 4 weeks), this compound gave an HPLC purity after storage at 672 h of 98.6%.

For `CNCc1ccc(NS(=O)(=O)c2ccsc2)c(-c2ccco2)c1` [Pyroglutamate crystal form I, N-(2-(furan-2-yl)-4-((methylamino)methyl)phenyl)thiophene-3-sulfonamide], the Purity in data set [2] (setting [3]) was 98.61 area %; in data set [2] (setting [4]) it was 98.58 area %; in data set [2] (setting [5]), 98.57 area %; in data set [2] (setting [6]) it was 98.61 area %; in data set [2] (setting [7]) it was 98.54 area %; in data set [2] (setting [8]), 98.32 area %. The Initial purity in data set [2] turned out to be 98.61 area %.

As for `CNCc1ccc(NS(=O)(=O)c2ccsc2)c(-c2ccco2)c1` [malate crystal form F, N-(2-(furan-2-yl)-4-((methylamino)methyl)phenyl)thiophene-3-sulfonamide], the “moisture adsorption value” value in data set [1] amounted to 1.4%. Moreover, the Purity was 98.72 area % in data set [2] (setting [3]); 98.7 area % in data set [2] (setting [4]); 98.79 area % in data set [2] (setting [5]); 98.74 area % in data set [2] (setting [6]); 98.75 area % in data set [2] (setting [7]); 98.68 area % in data set [2] (setting [8]). In addition, the Initial purity in data set [2] is given as 98.72 area %.

Regarding `CNCc1ccc(NS(=O)(=O)c2ccsc2)c(-c2ccco2)c1` [benzene sulfonate crystal form J, N-(2-(furan-2-yl)-4-((methylamino)methyl)-phenyl)thiophene-3-sulfonamide], the Purity was found to be 98.87 area % in data set [2] (setting [3]); 98.85 area % in data set [2] (setting [4]); 98.82 area % in data set [2] (setting [5]); 98.87 area % in data set [2] (setting [6]); 98.82 area % in data set [2] (setting [7]); 98.79 area % in data set [2] (setting [8]). Moreover, the Initial purity in data set [2] stood at 98.87 area %.

With `CNCc1ccc(NS(=O)(=O)c2ccsc2)c(-c2ccco2)c1` [succinate crystal form E, N-(2-(furan-2-yl)-4-((methylamino)methyl)phenyl)thiophene-3-sulfonamide], the “moisture adsorption value” value in data set [1] is 0.6%. Moreover, the Purity amounted to 98.92 area % in data set [2] (setting [3]); 98.86 area % in data set [2] (setting [4]); 98.94 area % in data set [2] (setting [5]); 98.92 area % in data set [2] (setting [6]); 98.72 area % in data set [2] (setting [7]); 98.98 area % in data set [2] (setting [8]). For the same compound, the Initial purity in data set [2] is 98.82 area %.
